This passage reports T/C results from PubChem BioAssay AID330 (DTP/NCI, 2004).

For the assay, the system named is P388 leukemia ip, CD2F1 mice, survival T/C. Kind of assay: NCI In Vivo Anticancer Drug Screen. Data for tumor model P388 Leukemia (intraperitoneal) in CD2F1 (CDF1) mice. The following applies: endpoint: median survival time, higher = longer survival. The method, boiled down:
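Mice carrying the transplanted tumor received test compound or vehicle. Survival was recorded in each group, and the value is the treated-group measurement divided by that of the vehicle-treated control group.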

Setting [1] is: dose: 100.0 mg/kg/injection, schedule: Q04DX003 (ip), vehicle: saline with Tween-80.
The mark [2] stands for this setting: dose: 200.0 mg/kg/injection, schedule: Q04DX003 (ip), vehicle: saline with Tween-80.
The mark [3] stands for this setting: dose: 400.0 mg/kg/injection, schedule: Q04DX003 (ip), vehicle: saline with Tween-80.
The mark [4] stands for this setting: dose: 50.0 mg/kg/injection, schedule: Q01DX005 (ip), vehicle: saline with Tween-80.
Setting [5] is: dose: 100.0 mg/kg/injection, schedule: Q01DX005 (ip), vehicle: saline with Tween-80.
[6] abbreviates: dose: 200.0 mg/kg/injection, schedule: Q01DX005 (ip), vehicle: saline with Tween-80.
Setting [7] is: dose: 12.5 mg/kg/injection, schedule: Q01DX009 (ip), vehicle: Klucel (hydroxypropylcellulose) (HPC).
[8] abbreviates: dose: 25.0 mg/kg/injection, schedule: Q01DX009 (ip), vehicle: Klucel (hydroxypropylcellulose) (HPC).
The mark [9] stands for this setting: dose: 100.0 mg/kg/injection, schedule: Q01DX009 (ip), vehicle: saline with Tween-80.

Values joined by “and” are separate entries in the source; they are usually repeats but may differ in a detail not shown here. Equal values may be shown once. Inconclusive results and toxic doses are left out.

`COc1ccc(/C=N/Nc2ccc([N+](=O)[O-])cc2[N+](=O)[O-])cc1`: the T/C reads like this: (dose: 50.0 mg/kg/injection, schedule: Q04DX003 (ip), vehicle: saline with Tween-80) 93 % of control; under setting [1], 94 % of control; under setting [2], 88 % of control; under setting [3], 91 % of control.

`O=C(O)C(=O)O.[NH-]CCC[NH-].[Pt+2]`: the T/C is 88 % of control (dose: 0.63 mg/kg/injection, schedule: Q04DX003 (ip), vehicle: other); 153 % of control (dose: 2.5 mg/kg/injection, schedule: Q04DX003 (ip), vehicle: other); 160 % of control (dose: 5.0 mg/kg/injection, schedule: Q04DX003 (ip), vehicle: other); 158 % of control (dose: 6.25 mg/kg/injection, schedule: Q04DX002 (ip), vehicle: saline); 203 % of control (dose: 12.5 mg/kg/injection, schedule: Q04DX002 (ip), vehicle: saline).

For `O=C(O)C(O)C(O)C(=O)O.[Co+3].[NH-]CC[NH-].[NH-]CC[NH-].[NH-]CC[NH-]` (stereo unspecified), the T/C runs as follows: under setting [4], 104 % of control; under setting [5], 100 % of control.

Turning to `COc1ccc(S(=O)(=O)O)cc1-n1nc(C(=O)Nc2ccccc2)n[n+]1-c1cc(S(=O)(=O)[O-])ccc1OC`, the T/C was 100 % of control (dose: 100.0 mg/kg/injection, schedule: Q01DX001 (ip), vehicle: suspension in saline); 100 % of control (dose: 200.0 mg/kg/injection, schedule: Q01DX001 (ip), vehicle: suspension in saline); 103 % of control (dose: 400.0 mg/kg/injection, schedule: Q01DX001 (ip), vehicle: suspension in saline).

As to `O=C(CN(Cc1ccccc1)Cc1ccccc1)C(O)C1OC(c2ccccc2)OCC1O` (stereo unspecified), the T/C under setting [4] is 91 % of control, the T/C under setting [5] was 88 % of control and the T/C under setting [6] was 89 % of control.

`CC(C)(O)/C=C/C(=O)[C@](C)(O)[C@H]1[C@H](O)C[C@@]2(C)[C@@H]3CC=C4[C@@H](C[C@H](O)C(=O)C4(C)C)[C@]3(C)C(=O)C[C@]12C`: the T/C by setting is: (dose: 0.25 mg/kg/injection, schedule: Q01DX009 (ip), vehicle: saline + Tween-80 + alcohol) 118 % of control; (dose: 0.25 mg/kg/injection, schedule: Q01DX009 (ip), vehicle: saline with Tween-80) 105 % of control; (dose: 0.25 mg/kg/injection, schedule: Q01DX009 (ip), vehicle: saline) 113 % of control; (dose: 0.5 mg/kg/injection, schedule: Q01DX009 (ip), vehicle: saline + Tween-80 + alcohol) 121 % of control; (dose: 0.5 mg/kg/injection, schedule: Q01DX009 (ip), vehicle: saline with Tween-80) 108 % of control; (dose: 0.5 mg/kg/injection, schedule: Q01DX009 (ip), vehicle: saline) 111 % of control. Also, the T/C is 95 % of control (dose: 0.5 mg/kg/injection, schedule: Q01DX010 (ip), vehicle: saline); 152 % of control (dose: 0.96 mg/kg/injection, schedule: Q01DX009 (ip), vehicle: saline + Tween-80 + alcohol); 105 % of control (dose: 0.96 mg/kg/injection, schedule: Q01DX009 (ip), vehicle: saline with Tween-80); 118 % of control (dose: 1.0 mg/kg/injection, schedule: Q01DX009 (ip), vehicle: saline + Tween-80 + alcohol); 119 % of control (dose: 1.0 mg/kg/injection, schedule: Q01DX009 (ip), vehicle: saline with Tween-80); 111 % of control (dose: 1.0 mg/kg/injection, schedule: Q01DX009 (ip), vehicle: saline).

For the molecule `NC(=S)N/N=C/c1cc(Cl)ccc1O`, the T/C under setting [1] is 99 % of control, the T/C under setting [2] was 98 % of control and the T/C under setting [3] is 93 % of control.

Take `NC(=S)N/N=C/c1c(-c2ccc(-c3ccccc3)cc2)nc2n1CCS2`: the T/C reads like this: (dose: 100.0 mg/kg/injection, schedule: Q04DX002 (ip), vehicle: Klucel (hydroxypropylcellulose) (HPC)) 98 % of control; (dose: 200.0 mg/kg/injection, schedule: Q04DX002 (ip), vehicle: Klucel (hydroxypropylcellulose) (HPC)) 104 % of control; (dose: 400.0 mg/kg/injection, schedule: Q04DX002 (ip), vehicle: Klucel (hydroxypropylcellulose) (HPC)) 99 % of control.

For `C1CCNCC1.O=C([CH-]C(=O)C(F)(F)F)c1ccc2c(c1)C(=O)c1ccccc1-2.O=C([CH-]C(=O)C(F)(F)F)c1ccc2c(c1)C(=O)c1ccccc1-2.O=C([CH-]C(=O)C(F)(F)F)c1ccc2c(c1)C(=O)c1ccccc1-2.O=C([CH-]C(=O)C(F)(F)F)c1ccc2c(c1)C(=O)c1ccccc1-2.[Eu+3]`, the T/C reads like this: under setting [7], 112 % of control; under setting [8], 111 % of control; (dose: 50.0 mg/kg/injection, schedule: Q01DX009 (ip), vehicle: Klucel (hydroxypropylcellulose) (HPC)) 110 % of control.

Take `C=C1C(=O)OC2/C=C(\C)CC/C=C(/C=O)CC(OC(=O)C(C)C)C12` (stereo unspecified): the T/C is 100 % of control (dose: 5.0 mg/kg/injection, schedule: Q01DX009 (ip), vehicle: other); 91 % of control (dose: 10.0 mg/kg/injection, schedule: Q01DX009 (ip), vehicle: other); 112 % of control (dose: 20.0 mg/kg/injection, schedule: Q01DX009 (ip), vehicle: other).

Turning to `CCOc1ccc(Nc2ccc(/C(=C3\C=CC(=[N+](CC)Cc4cccc(S(=O)(=O)O)c4)C=C3C)c3ccc(N(CC)Cc4cccc(S(=O)(=O)O)c4)cc3C)cc2)cc1`, the T/C reads like this: (dose: 50.0 mg/kg/injection, schedule: Q01DX009 (ip), vehicle: saline with Tween-80) 98 % of control; under setting [9], 97 % of control.

As to `CC(C)=CCC(OC1OC(CO)C(O)C(O)C1O)C1=CC(=O)c2c(O)ccc(O)c2C1=O` (stereo unspecified), the T/C by setting is: (dose: 12.5 mg/kg/injection, schedule: Q04DX002 (ip), vehicle: saline with Tween-80) 119 % of control; (dose: 25.0 mg/kg/injection, schedule: Q04DX002 (ip), vehicle: saline with Tween-80) 115 % of control.

In the case of `COc1ccc(OC(=O)CCCl)cc1`, the T/C is 113 % of control under setting [9]; 108 % of control (dose: 200.0 mg/kg/injection, schedule: Q01DX009 (ip), vehicle: saline with Tween-80); 104 % of control (dose: 400.0 mg/kg/injection, schedule: Q01DX009 (ip), vehicle: saline with Tween-80).

Regarding `CC([NH-])C(=O)O.O=C(O)CN(CC(=O)O)CC(=O)O.[Co+2]`, the T/C runs as follows: (dose: 25.0 mg/kg/injection, schedule: Q01DX009 (ip), vehicle: saline) 104 % of control; (dose: 50.0 mg/kg/injection, schedule: Q01DX009 (ip), vehicle: saline) 113 % of control; (dose: 100.0 mg/kg/injection, schedule: Q01DX009 (ip), vehicle: saline) 104 % of control and 90 % of control.

As for `C=CCn1/c(=N\NC(=O)c2ccncc2)sc2ccccc21`, the T/C is, setting by setting: (dose: 6.25 mg/kg/injection, schedule: Q01DX009 (ip), vehicle: Klucel (hydroxypropylcellulose) (HPC)) 114 % of control; under setting [7], 100 % of control; under setting [8], 103 % of control.

With `C=C1C(=O)O[C@@H]2C[C@@H](C)[C@@H]3CC[C@H](O)[C@@]3(COC(C)=O)C[C@@H]12`, the T/C was 97 % of control (dose: 8.13 mg/kg/injection, schedule: Q01DX005 (ip), vehicle: Klucel (hydroxypropylcellulose) (HPC)); 99 % of control (dose: 16.25 mg/kg/injection, schedule: Q01DX005 (ip), vehicle: Klucel (hydroxypropylcellulose) (HPC)); 100 % of control and 98 % of control (dose: 32.5 mg/kg/injection, schedule: Q01DX005 (ip), vehicle: Klucel (hydroxypropylcellulose) (HPC)); 104 % of control and 109 % of control (dose: 65.0 mg/kg/injection, schedule: Q01DX005 (ip), vehicle: Klucel (hydroxypropylcellulose) (HPC)); 113 % of control (dose: 130.0 mg/kg/injection, schedule: Q01DX005 (ip), vehicle: Klucel (hydroxypropylcellulose) (HPC)); 122 % of control (dose: 260.0 mg/kg/injection, schedule: Q01DX005 (ip), vehicle: Klucel (hydroxypropylcellulose) (HPC)).

As for `[O-][n+]1c(Cl)c(Cl)[n+]([O-])c2[nH]c(C(F)(F)F)nc21`, the T/C was 103 % of control (dose: 25.0 mg/kg/injection, schedule: Q01DX005 (ip), vehicle: saline with Tween-80); 96 % of control under setting [4]; 102 % of control under setting [5]; 90 % of control and 96 % of control under setting [6].

Regarding `C1CCC2OCCOCCOCCOCCOC2C1` (stereo unspecified), the T/C by setting is: (dose: 50.0 mg/kg/injection, schedule: Q01DX005 (ip), vehicle: saline) 95 % of control; (dose: 100.0 mg/kg/injection, schedule: Q01DX005 (ip), vehicle: saline) 95 % of control.
